Laboratory results taken from patent US20060116316A1, “Heterocyclic inhibitors of IRES-mediated translation and methods of use thereof” (priority 2004, published 2006).
Where a SMILES comes first, the peptide text is derived from it.

test system: HCV IRES; experiment: HCV IRES reporter FACS assay (GFP expression ratio, intein-expressed cyclic peptides); format: cell-based, Hepatitis C virus; details: 3-mers from mutant intein scaffold, junction Val-His-Asn-X1X2X3-Trp-Ile-Ser; ratio at least 1.20 = significant activity
Text: [The source words this procedure for another variant and says it was used here with some conditions changed.] Cells producing libraries of cyclic 3-mers and 4-mers (i.e., libraries of cyclic peptides that contain 3 or 4 amino acid residues) were constructed using methods identical to those of Kinsella et al (J Biol. Chem. 2002 277:37512-8), except different oligonucleotides were used for library construction. Clones from this library were screened in an assay shown in FIG. 2 to identify IRES-inhibitory compounds.
In summary, separate cyclic 3-mer and cyclic 4-mer libraries were constructed such that each peptide of the library contained a fixed Ser, Thr or Cys residue (at position 1) and the remaining residues were randomized. For library construction, degenerate oligonucleotides of sequence 5′-[…](AGC/ACC/TGC)(NNK)2 or 3 TGCATCAGCGGCGACAG-3′ were annealed to the primer 5′-[…]-3′ and extended using the Expand PCR kit (Roche Molecular Biochemicals). The double-stranded DNA insert was digested and inserted into the BclI/DrdI sites of DnaBO-e-BFP (ACUC). The plasmid libraries were electroporated into ElectroMAX DH 10B competent E. coli (Invitrogen) for amplification on LB+amp agar medium. […] Expression of the intein is detected by detecting BFP expression. Expression of the intein (and the cyclic peptide produced by the intein) is suppressible by addition of exogenous doxycycline. The amino acid sequence of the junctions of the intein scaffold used in making the 3-mer library is Val-His-Asn-X3 or 4-Cys-Ile-Ser, where X3 or 4 are three or four contiguous amino acids.
Infectious retroviral particles were produced by transfection of 15 µg of each library (as described in Swift et al, (1999). Current Protocols in Immunology Vol. 10.17C, pp. 1-17, Freeman, N.Y.) into approximately 5×10^6 Phoenix-A packaging cells. Each resulting library of retroviral particles was then used to infect 5×10^6 BJAB-S3A11 reporter cells and a FACS based selection was carried out to isolate cells with reduced HCV-IRES reporter output.
In detail, referring to FIG. 2, the cells used in the assay contained an IRES-dependent reporter system. […]. Also present in the cells is a control reporter system for assaying the activity of 5′ cap-dependent translation (the mechanism by which most cellular proteins are normally translated). The control reporter system contains a CMV promoter that drives the transcription of an RNA containing 5′ cap-dependent UTR, operably linked to an RNA encoding RFP (red fluorescent protein). Translation of RFP is dependent on the activity of the 5′ cap-dependent UTR.
Cells containing both the cyclic compound library and the reporter systems described above were first screened for survival upon exposure to diptheria toxin, and then screened by FACS to identify cells that had reduced GFP expression, as compared to RFP expression. Cells were expanded and replica-plated and grown in the presence or absence of dox (100 ng/ml) for four days. Plates were stimulated with IL-4 and GFP expression (relative to RFP) was monitored by flow cytometry. The IRES-inhibitory activity of a peptide is evaluated by calculating the ratio of the geometric mean of GFP expression of peptide positive cells (“peptide pos+” cells i.e., cells not contacted with dox) to the geometric mean of GFP expression of peptide negative cells (“peptide pos−” cells i.e., cells contacted with dox).
Cyclic peptides assigned higher scores have a greater IRES-inhibitory activity.
The number shown in parentheses after each of the amino acid sequences is the IRES-inhibitory activity ratio, as discussed above.

SMILES | IRES-inhibitory activity ratio (geometric mean GFP expression, peptide positive cells / peptide negative cells)
O=C1N[C@@H](CO)C(=O)N2CCC[C@H]2C(=O)N[C@H]1Cc1c[nH]c2ccccc12 [cyclo-SPW, cyclo[SPW]] (cyclo(Pro-Trp-Ser)) | 2.28
NC(=O)CC[C@@H]1NC(=O)[C@H](CO)NC(=O)[C@H](Cc2c[nH]c3ccccc23)NC1=O [cyclo-SQW, cyclo[SQW]] (cyclo(Gln-Trp-Ser)) | 2.20
N=C(N)NCCC[C@@H]1NC(=O)[C@H](CO)NC(=O)[C@H](Cc2c[nH]c3ccccc23)NC1=O [cyclo-SRW, cyclo[SRW]] (cyclo(Arg-Trp-Ser)) | 2.14
O=C1N[C@@H](Cc2c[nH]c3ccccc23)C(=O)N[C@@H](CO)C(=O)N[C@H]1CO [cyclo-SSW, cyclo[SSW]] (cyclo(Ser-Ser-Trp)) | 2.05
C[C@@H](O)[C@@H]1NC(=O)[C@H](CO)NC(=O)[C@H](Cc2c[nH]c3ccccc23)NC1=O [cyclo-STW, cyclo[STW]] (cyclo(Ser-Thr-Trp)) | 2.12
C[C@@H]1NC(=O)[C@H]([C@@H](C)O)NC(=O)[C@H](Cc2c[nH]c3ccccc23)NC1=O [cyclo-TAW, cyclo[TAW]] (cyclo(Ala-Trp-Thr)) | 5.09

same assay, conditions: 3-mers from mutant intein scaffold, junction Val-His-Tyr-X1X2X3-Cys-Ile-Ser; ratio at least 1.20 = significant activity

SMILES | IRES-inhibitory activity ratio (geometric mean GFP expression, peptide positive cells / peptide negative cells)
CC(C)[C@@H]1NC(=O)[C@H]([C@@H](C)O)NC(=O)[C@H](CO)NC1=O [cyclo-STV, cyclo[STV]] (cyclo(Ser-Thr-Val)) | 2.24
CC(C)[C@@H]1NC(=O)[C@H](C)NC(=O)[C@H]([C@@H](C)O)NC1=O [cyclo-TAV, cyclo[TAV]] (cyclo(Ala-Val-Thr)) | 2.00

same assay, conditions: 4-mers from mutant intein scaffold, junction Val-His-Asn-X1X2X3X4-Cys-Ser; ratio at least 1.20 = significant activity

SMILES | IRES-inhibitory activity ratio (geometric mean GFP expression, peptide positive cells / peptide negative cells)
C[C@@H]1NC(=O)[C@H](Cc2ccccc2)NC(=O)[C@H](Cc2c[nH]c3ccccc23)NC(=O)[C@H](CO)NC1=O [cyclo-SWFA, cyclo[SWFA]] (cyclo(ASWF)) | 1.31
NCCCC[C@@H]1NC(=O)[C@H](Cc2ccccc2)NC(=O)[C@H](Cc2c[nH]c3ccccc23)NC(=O)[C@H](CO)NC1=O [cyclo-SWFK, cyclo[SWFK]] (cyclo(FKSW)) | 1.58
CSCC[C@@H]1NC(=O)[C@H](Cc2ccccc2)NC(=O)[C@H](Cc2c[nH]c3ccccc23)NC(=O)[C@H](CO)NC1=O [cyclo-SWFM, cyclo[SWFM]] (cyclo(FMSW)) | 1.31
N=C(N)NCCC[C@@H]1NC(=O)[C@H](Cc2ccccc2)NC(=O)[C@H](Cc2c[nH]c3ccccc23)NC(=O)[C@H](CO)NC1=O [cyclo-SWFR, cyclo[SWFR]] (cyclo(FRSW)) | 1.44
N=C(N)NCCC[C@@H]1NC(=O)[C@H](Cc2c[nH]c3ccccc23)NC(=O)[C@H](Cc2c[nH]c3ccccc23)NC(=O)[C@H](CO)NC1=O [cyclo-SWWR, cyclo[SWWR]] (cyclo(RSWW)) | 2.03
N=C(N)NCCC[C@@H]1NC(=O)[C@H](Cc2ccc(O)cc2)NC(=O)[C@H](Cc2c[nH]c3ccccc23)NC(=O)[C@H](CO)NC1=O [cyclo-SWYR, cyclo[SWYR]] (cyclo(RSWY)) | 1.49

same assay, conditions: BJAB-S3A11 reporter cells, +/- dox 100 ng/ml four days; library intein junction Val-His-Asn-X1X2X3-Cys-Ile-Ser; ratio at least 1.20 = significant activity

SMILES | IRES-inhibitory activity ratio (geometric mean GFP expression, peptide positive cells / peptide negative cells)
CCC(C)[C@@H]1NC(=O)[C@H](C(C)C)NC(=O)[C@H](CO)NC1=O (some centres unmarked) [cyclo-SVI, cyclo[SVI]] | 1.28
CC(C)[C@@H]1NC(=O)[C@H](CO)NC(=O)[C@H](C(C)C)NC1=O [cyclo-SVV, cyclo[SVV]] (cyclo(Ser-Val-Val)) | 1.64
CC(C)[C@@H]1NC(=O)[C@H](CO)NC(=O)[C@H](Cc2c[nH]c3ccccc23)NC1=O [cyclo-SVW, cyclo[SVW]] (cyclo(Ser-Val-Trp)) | 1.3
O=C1N[C@@H](Cc2c[nH]c3ccccc23)C(=O)N[C@@H](Cc2ccccc2)C(=O)N[C@H]1CO [cyclo-SWF, cyclo[SWF]] (cyclo(Phe-Ser-Trp)) | 1.33
CCC(C)[C@@H]1NC(=O)[C@H](Cc2c[nH]c3ccccc23)NC(=O)[C@H](CO)NC1=O (some centres unmarked) [cyclo-SWI, cyclo[SWI]] | 1.36
CSCC[C@@H]1NC(=O)[C@H](Cc2c[nH]c3ccccc23)NC(=O)[C@H](CO)NC1=O [cyclo-SWM, cyclo[SWM]] (cyclo(Met-Ser-Trp)) | 1.22
CC(C)[C@@H]1NC(=O)[C@H](Cc2c[nH]c3ccccc23)NC(=O)[C@H](CO)NC1=O [cyclo-SWV, cyclo[SWV]] (cyclo(Ser-Trp-Val)) | 1.83
O=C1N[C@@H](Cc2c[nH]c3ccccc23)C(=O)N[C@@H](Cc2c[nH]c3ccccc23)C(=O)N[C@H]1CO [cyclo-SWW, cyclo[SWW]] (cyclo(Ser-Trp-Trp)) | 2.37
O=C1N[C@@H](Cc2c[nH]c3ccccc23)C(=O)N[C@@H](Cc2ccc(O)cc2)C(=O)N[C@H]1CO [cyclo-SWY, cyclo[SWY]] (cyclo(Ser-Trp-Tyr)) | 1.38
CC(C)[C@@H]1NC(=O)[C@H](Cc2ccc(O)cc2)NC(=O)[C@H](CO)NC1=O [cyclo-SYV, cyclo[SYV]] (cyclo(Ser-Tyr-Val)) | 1.4
O=C1N[C@@H](Cc2ccc(O)cc2)C(=O)N[C@@H](Cc2c[nH]c3ccccc23)C(=O)N[C@H]1CO [cyclo-SYW, cyclo[SYW]] (cyclo(Ser-Tyr-Trp)) | 1.64
C[C@@H](O)[C@@H]1NC(=O)[C@H](Cc2c[nH]c3ccccc23)NC(=O)[C@H](CS)NC1=O [cyclo-TCW, cyclo[TCW]] (cyclo(Cys-Trp-Thr)) | 1.48
C[C@@H](O)[C@@H]1NC(=O)[C@H](Cc2c[nH]c3ccccc23)NC(=O)[C@H](Cc2ccccc2)NC1=O [cyclo-TFW, cyclo[TFW]] (cyclo(Phe-Trp-Thr)) | 1.75
C[C@@H](O)[C@@H]1NC(=O)[C@H](Cc2c[nH]c3ccccc23)NC(=O)[C@H](Cc2cnc[nH]2)NC1=O [cyclo-THW, cyclo[THW]] (cyclo(His-Trp-Thr)) | 1.49
CC(C)C[C@@H]1NC(=O)[C@H]([C@@H](C)O)NC(=O)[C@H](Cc2c[nH]c3ccccc23)NC1=O [cyclo-TLW, cyclo[TLW]] (cyclo(Leu-Trp-Thr)) | 1.2
